Measurements: patent US11254663B2 (BRISTOL-MYERS SQUIBB COMPANY, priority 2019, dated 2022)
Read-outs that look alike come from different tables or passages of the source.

Biological target: FXR (Homo sapiens (Human), UniProt Q96RI1)
Assay: transient human FXR/Gal4-luciferase reporter assay
Type: cell-based
Summary of the method: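 Compound exposure ran overnight at 37 °C and activity was measured as luminescence with Steady-Glo reagent. The cells were a HEK293 line stably expressing firefly luciferase under five Gal4 response elements. They were transiently transfected, one night beforehand, with a plasmid encoding Gal4 DNA-binding domain fused to the human FXR ligand-binding domain.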

[1] = Gal4-hFXR fusion construct, HEK293 reporter cells, response relative to 8 μM GW-4064

FXR, sequence (Q96RI1 262-486): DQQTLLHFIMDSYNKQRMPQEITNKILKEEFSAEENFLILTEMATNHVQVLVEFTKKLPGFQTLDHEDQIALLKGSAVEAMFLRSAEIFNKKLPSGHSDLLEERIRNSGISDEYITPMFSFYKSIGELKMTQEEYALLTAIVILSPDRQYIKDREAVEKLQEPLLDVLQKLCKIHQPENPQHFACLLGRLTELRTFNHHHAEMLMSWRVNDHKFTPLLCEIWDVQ

Row | Structure (SMILES) | EC50 [µM] | EC50 [1] [µM]
1 | CC(C)(O)c1ccc(-c2cccc(N(CC34CCC(c5noc(C(C)(C)F)n5)(CC3)CC4)C(=O)NC3CCS(=O)(=O)CC3)c2)cc1 [Example 644, 3-(1,1-dioxidotetrahydro-2H-thiopyran-4-yl)-1-((4-(5-(2-fluoropropan-2-yl)-1,2,4-oxadiazol-3-yl)bicyclo[2.2.2]octan-1-yl)methyl)-1-(4′-(2-hydroxypropan-2-yl)-[1,1′-biphenyl]-3-yl)urea] | 0.743 | –
2 | CS(=O)(=O)Nc1ccc(-c2cccc(N(CC34CCC(c5nc(C6CC6)no5)(CC3)CC4)C(=O)C34CC(F)(C3)C4)c2)cn1 [Example 270, N-((4-(3-cyclopropyl-1,2,4-oxadiazol-5-yl)bicyclo[2.2.2]octan-1-yl)methyl)-3-fluoro-N-(3-(6-(methylsulfonamido)pyridin-3-yl)phenyl)bicyclo[1.1.1]pentane-1-carboxamide] | – | 0.442
3 | CS(=O)(=O)Nc1ccc(-c2cccc(N(CC34CCC(c5noc(C(F)F)n5)(CC3)CC4)C(=O)C34CC(F)(C3)C4)c2)cc1 [Example 460, N-((4-(5-(difluoromethyl)-1,2,4-oxadiazol-3-yl)bicyclo[2.2.2]octan-1-yl)methyl)-3-fluoro-N-(4′-(methylsulfonamido)-[1,1′-biphenyl]-3-yl)bicyclo[1.1.1]pentane-1-carboxamide] | 0.338 | –
4 | Cc1nc2ncc(-c3cccc(N(CC45CCC(c6nc(C7CC7)no6)(CC4)CC5)C(=O)C45CC(F)(C4)C5)c3)cc2s1 [Example 278, N-((4-(3-cyclopropyl-1,2,4-oxadiazol-5-yl)bicyclo[2.2.2]octan-1-yl)methyl)-3-fluoro-N-(3-(2-methylthiazolo[4,5-b]pyridin-6-yl)phenyl)bicyclo[1.1.1]pentane-1-carboxamide] | – | 0.083
5 | N#Cc1cc(-c2cccc(N(CC34CCC(c5nc(C6CC6)no5)(CC3)CC4)C(=O)C34CC(F)(C3)C4)c2)ccc1F [Example 294, N-(3′-cyano-4′-fluoro-[1,1′-biphenyl]-3-yl)-N-((4-(3-cyclopropyl-1,2,4-oxadiazol-5-yl)bicyclo[2.2.2]octan-1-yl)methyl)-3-fluorobicyclo[1.1.1]pentane-1-carboxamide] | – | 0.579
6 | Cc1nc2ccc(-c3ccnc(N(CC45CCC(c6nc(C7CC7)no6)(CC4)CC5)C(=O)C45CC(F)(C4)C5)c3)cc2s1 [Example 549, N-((4-(3-cyclopropyl-1,2,4-oxadiazol-5-yl)bicyclo[2.2.2]octan-1-yl)methyl)-3-fluoro-N-(4-(2-methylbenzo[d]thiazol-6-yl)pyridin-2-yl)bicyclo[1.1.1]pentane-1-carboxamide] | – | 0.036
7 | Cc1cn2cc(-c3cccc(N(CC45CCC(c6nc(C7CC7)no6)(CC4)CC5)C(=O)C45CC(F)(C4)C5)c3)c(C)cc2n1 [Example 320, N-((4-(3-cyclopropyl-1,2,4-oxadiazol-5-yl)bicyclo[2.2.2]octan-1-yl)methyl)-N-(3-(2,7-dimethylimidazo[1,2-a]pyridin-6-yl)phenyl)-3-fluorobicyclo[1.1.1]pentane-1-carboxamide] | – | 0.493
8 | CCOc1ccc(-c2cccc(N(CC34CCC(c5nc(C(C)(C)C)no5)(CC3)CC4)C(=O)C34CC(F)(C3)C4)c2)cn1 [Example 360, N-((4-(3-(tert-butyl)-1,2,4-oxadiazol-5-yl)bicyclo[2.2.2]octan-1-yl)methyl)-N-(3-(6-ethoxypyridin-3-yl)phenyl)-3-fluorobicyclo[1.1.1]pentane-1-carboxamide] | – | 0.147
9 | O=C(N(CC12CCC(c3nc(C4CC4)no3)(CC1)CC2)c1cccc(-c2cccc(C(F)(F)F)c2)c1)C12CC(F)(C1)C2 [Example 252, N-((4-(3-cyclopropyl-1,2,4-oxadiazol-5-yl)bicyclo[2.2.2]octan-1-yl)methyl)-3-fluoro-N-(3′-(trifluoromethyl)-[1,1′-biphenyl]-3-yl)bicyclo[1.1.1]pentane-1-carboxamide] | – | 0.833
10 | CCc1cnc(-c2ccnc(N(CC34CCC(c5noc(C(C)(C)C)n5)(CC3)CC4)C(=O)C34CC(F)(C3)C4)c2)nc1 [Example 543, N-((4-(5-(tert-butyl)-1,2,4-oxadiazol-3-yl)bicyclo[2.2.2]octan-1-yl)methyl)-N-(4-(5-ethylpyrimidin-2-yl)pyridin-2-yl)-3-fluorobicyclo[1.1.1]pentane-1-carboxamide] | 0.014 | –
11 | CC(C)(O)c1ccc(-c2cccc(N(CC34CCC(c5noc(C(C)(C)F)n5)(CC3)CC4)C(=O)NC3CCC(O)(C(F)(F)F)CC3)c2)cc1 (single isomer, unassigned) [Example 601, 1-((4-(5-(2-fluoropropan-2-yl)-1,2,4-oxadiazol-3-yl)bicyclo[2.2.2]octan-1-yl)methyl)-3-(4-hydroxy-4-(trifluoromethyl)cyclohexyl)-1-(4′-(2-hydroxypropan-2-yl)-[1,1′-biphenyl]-3-yl) urea] | – | 0.246
12 | CCOc1ncc(-c2cccc(N(CC34CCC(c5cc(C6CC6)n(C)n5)(CC3)CC4)C(=O)C34CC(F)(C3)C4)c2)cn1 [Example 407, N-((4-(5-cyclopropyl-1-methyl-1H-pyrazol-3-yl)bicyclo[2.2.2]octan-1-yl)methyl)-N-(3-(2-ethoxypyrimidin-5-yl)phenyl)-3-fluorobicyclo[1.1.1]pentane-1-carboxamide] | – | 0.209
13 | Cc1nc2ccc(-c3cccc(N(CC45CCC(c6cnc(C(F)(F)F)nc6)(CC4)OC5)C(=O)C45CC(F)(C4)C5)c3)cc2s1 [Example 421, 3-fluoro-N-(3-(2-methylbenzo[d]thiazol-6-yl)phenyl)-N-((1-(2-(trifluoromethyl)pyrimidin-5-yl)-2-oxabicyclo[2.2.2]octan-4-yl)methyl)bicyclo[1.1.1]pentane-1-carboxamide] | – | 2.17
14 | Cc1nc2cc(-c3cccc(N(CC45CCC(c6nc(C7CC7)no6)(CC4)CC5)C(=O)C45CC(F)(C4)C5)c3)ccc2s1 [Example 303, N-((4-(3-cyclopropyl-1,2,4-oxadiazol-5-yl)bicyclo[2.2.2]octan-1-yl)methyl)-3-fluoro-N-(3-(2-methylbenzo[d]thiazol-5-yl)phenyl)bicyclo[1.1.1]pentane-1-carboxamide] | – | 0.349
15 | COc1ncc(-c2cccc(N(CC34CCC(c5nc(C6CC6)no5)(CC3)CC4)C(=O)C34CC(F)(C3)C4)c2)cn1 [Example 248, N-((4-(3-cyclopropyl-1,2,4-oxadiazol-5-yl)bicyclo[2.2.2]octan-1-yl)methyl)-3-fluoro-N-(3-(2-methoxypyrimidin-5-yl)phenyl)bicyclo[1.1.1]pentane-1-carboxamide] | – | 0.154
16 | CC(C)(C)c1noc(C23CCC(CN(C(=O)C45CC(F)(C4)C5)c4cccc(-c5ccc(OC(F)F)cn5)c4)(CC2)CC3)n1 [Example 373, N-((4-(3-(tert-butyl)-1,2,4-oxadiazol-5-yl)bicyclo[2.2.2]octan-1-yl)methyl)-N-(3-(5-(difluoromethoxy)pyridin-2-yl)phenyl)-3-fluorobicyclo[1.1.1]pentane-1-carboxamide] | – | 0.088
17 | COc1ncc(-c2ccnc(N(CC34CCC(c5noc(C(C)(C)C)n5)(CC3)CC4)C(=O)C34CC(F)(C3)C4)c2)cn1 [Example 538, N-((4-(5-(tert-butyl)-1,2,4-oxadiazol-3-yl)bicyclo[2.2.2]octan-1-yl)methyl)-3-fluoro-N-(4-(2-methoxypyrimidin-5-yl)pyridin-2-yl)bicyclo[1.1.1]pentane-1-carboxamide] | 0.121 | –
